Laboratory results from patent US20210238169A1, “PROCESS FOR PREPARING A COMPOUND OF FORMULA (XIII)” (PULMOCIDE LIMITED, priority 2014, published 2021).

Experiments:
[1] = test system: Aspergillus fumigatus (ATCC 13073); experiment: IL-6 and TNFα levels in serum of Aspergillus fumigatus infected mice; type: in vivo
Procedure: (§1) Aspergillus fumigatus (ATCC 13073 [strain: NIH 5233], American Type Culture Collection, Manassas, Va., USA) was grown on Malt agar (Nissui Pharmaceutical, Tokyo, Japan) plates for 6-7 days at RT (24±1° C.). Spores were aseptically dislodged from the agar plates and suspended in sterile distilled water with 0.05% Tween 80 and 0.1% agar. On the day of infection, spore counts were assessed by haemocytometer and the inoculum was adjusted to obtain a concentration of 1.67×10^8 spores mL^−1 of physiological saline.
(§2) On day 0, animals were infected with the spore suspension (35 μL intra-nasally).
(§3) Test compounds were administered intra-nasally ([…]) once daily, 30 min before infection on day 0 and then on days 1, 2 and 3 (representing prophylactic treatment) or on days 1, 2 and 3 only (representing therapeutic treatment). For extended prophylactic treatment, test compounds (35 μL of a suspension of 0.0032 or 0.016 mg/mL in physiological saline) were administered intra-nasally once daily for seven days; then 30 min before infection on day 0, and thereafter, either on days 1, 2 and 3 after infection, or on day 0 only. The effects of these treatment paradigms were compared with those obtained when treatment was restricted to one day and 30 min before inoculation and then on days 1, 2 and 3 post infection; or reduced still further to one day and 30 min before infection only.
(§4) Six hours after the last dose, animals were anesthetised, the trachea was cannulated and BALF was collected. The total number of alveolar cells was determined using a haemocytometer, and the numbers of alveolar macrophages and neutrophils were determined by FACS analysis (EPICS® ALTRA II, Beckman Coulter, Inc., Fullerton, Calif., USA) using anti-mouse MOMA2-FITC (macrophage) or anti-mouse 7/4 (neutrophil), respectively, as previously reported (Kimura et al., 2013). The levels of IFN-γ and IL-17 in BALF, and IL-6 and TNFα in serum were determined using Quantikine® mouse IFN-γ, IL-17, IL-6 or TNF-α ELISA kit (R&D systems, Inc., Minneapolis, Minn., USA) respectively. MDA, an oxidative stress marker, was assayed using OxiSelect® TBARS Assay Kits (MDA Quantitation; Cell Biolabs Inc, San Diego, Calif., USA). Aspergillus GM in serum was determination using Platelia GM-EIA kits (Bio-Rad Laboratories, Redmond, Wash., USA). Cut-off index was calculated by the formula: Cut-off index=OD in sample/OD in cut-off control provided in kit. For tissue fungal load assays, 100 mg of lung tissue was removed aseptically and homogenized in 0.2 mL of 0.1% agar in sterile distilled water. Serially diluted lung homogenates were plated on Malt agar plates (50 μL/plate), and incubated at 24±1° C. for 72 to 96 h. The colonies of A. fumigatus on each plate was counted and the fungal titre presented as CFU per gram of lung tissue.

[2] = test system: Aspergillus fumigatus (ATCC 13073); experiment: Macrophage and neutrophil accumulation into BALF of Aspergillus fumigatus infected mice; type: in vivo
Procedure: as §1, §2, §3, §4

[3] = Prophylactic Treatment, 0.08 mg/mL intra-nasally
[4] = Prophylactic Treatment, 0.4 mg/mL intra-nasally
[5] = Prophylactic Treatment, 2 mg/mL intra-nasally
[6] = Therapeutic Treatment, 0.4 mg/mL intra-nasally
[7] = Therapeutic Treatment, 2 mg/mL intra-nasally
[8] = Therapeutic Treatment, 10 mg/mL intra-nasally

Cc1cc(N2CCN(c3ccc(C(=O)Nc4ccc(F)cc4)cc3)CC2)ccc1OC[C@@H]1CO[C@@](Cn2cncn2)(c2ccc(F)cc2F)C1 [Compound (I), 4-(4-(4-(((3R,5R)-5-((1H-1,2,4-triazol-1-yl)methyl)-5-(2,4-difluorophenyl)tetrahydrofuran-3-yl)methoxy)-3-methylphenyl)piperazin-1-yl)-N-(4-fluorophenyl)benzamide]
IL-6 concentration in serum [1, 3]: 159 ± 73.3 pg/mL | IL-6 in serum, % Inhibition [1, 3]: 44% | TNFα concentration in serum [1, 3]: 11.8 ± 5.9 pg/mL | TNFα in serum, % Inhibition [1, 3]: 54% | IL-6 concentration in serum [1, 4]: 86.3 ± 46.9 pg/mL | IL-6 in serum, % Inhibition [1, 4]: 70% | TNFα concentration in serum [1, 4]: 7.3 ± 3.5 pg/mL | TNFα in serum, % Inhibition [1, 4]: 71% | IL-6 concentration in serum [1, 5]: 44.5 ± 12.2 pg/mL | IL-6 in serum, % Inhibition [1, 5]: 84% | TNFα concentration in serum [1, 5]: 4.7 ± 0.4 pg/mL | TNFα in serum, % Inhibition [1, 5]: 82% | IL-6 concentration in serum [1, 6]: 51.7 ± 16.8 pg/mL | IL-6 in serum, % Inhibition [1, 6]: 82% | TNFα concentration in serum [1, 6]: 6.2 ± 0.5 pg/mL | TNFα in serum, % Inhibition [1, 6]: 76% | IL-6 concentration in serum [1, 7]: 44.2 ± 11.4 pg/mL | IL-6 in serum, % Inhibition [1, 7]: 84% | TNFα concentration in serum [1, 7]: 5.5 ± 0.7 pg/mL | TNFα in serum, % Inhibition [1, 7]: 79% | IL-6 concentration in serum [1, 8]: 35.9 ± 10.4 pg/mL | IL-6 in serum, % Inhibition [1, 8]: 87% | TNFα concentration in serum [1, 8]: 4.9 ± 0.6 pg/mL | TNFα in serum, % Inhibition [1, 8]: 81% | Macrophage cell numbers in BAL [2, 3]: 0.40 ± 0.15 × 10^5/mL | Macrophage cell numbers in BAL, % inhibition [2, 3]: 38% | Neutrophil cell numbers in BAL [2, 3]: 0.37 ± 0.04 × 10^5/mL | Neutrophil cell numbers in BAL, % inhibition [2, 3]: 24% | Macrophage cell numbers in BAL [2, 4]: 0.32 ± 0.07 × 10^5/mL | Macrophage cell numbers in BAL, % inhibition [2, 4]: 51% | Neutrophil cell numbers in BAL [2, 4]: 0.26 ± 0.12 × 10^5/mL | Neutrophil cell numbers in BAL, % inhibition [2, 4]: 47% | Macrophage cell numbers in BAL [2, 5]: 0.26 ± 0.05 × 10^5/mL | Macrophage cell numbers in BAL, % inhibition [2, 5]: 60% | Neutrophil cell numbers in BAL [2, 5]: 0.22 ± 0.04 × 10^5/mL | Neutrophil cell numbers in BAL, % inhibition [2, 5]: 55% | Macrophage cell numbers in BAL [2, 6]: 0.43 ± 0.05 × 10^5/mL | Macrophage cell numbers in BAL, % inhibition [2, 6]: 34% | Neutrophil cell numbers in BAL [2, 6]: 0.38 ± 0.04 × 10^5/mL | Neutrophil cell numbers in BAL, % inhibition [2, 6]: 22% | Macrophage cell numbers in BAL [2, 7]: 0.40 ± 0.11 × 10^5/mL | Macrophage cell numbers in BAL, % inhibition [2, 7]: 38% | Neutrophil cell numbers in BAL [2, 7]: 0.34 ± 0.05 × 10^5/mL | Neutrophil cell numbers in BAL, % inhibition [2, 7]: 31% | Macrophage cell numbers in BAL [2, 8]: 0.32 ± 0.07 × 10^5/mL | Macrophage cell numbers in BAL, % inhibition [2, 8]: 51% | Neutrophil cell numbers in BAL [2, 8]: 0.27 ± 0.08 × 10^5/mL | Neutrophil cell numbers in BAL, % inhibition [2, 8]: 45%
